One series deals with MNTI cells. Kind of series: Melanin content measurement in MNTI cells. To be noted: 50 μM HQ, 3 days. The class given is cell-based, human.
The next series has as its target T1, human tyrosinase (Homo sapiens, UniProt P14679).
T1 construct: cells were harvested and lysed using 1% Triton X-100 in 0.067 M potassium phosphate buffer (pH 6.8); endogenous in cells; host or cells: primary human melanocytes (gift from Dr. Todd Ridky, Stanford), clarified Triton X-100 lysate
T1 sequence (P14679 19-529): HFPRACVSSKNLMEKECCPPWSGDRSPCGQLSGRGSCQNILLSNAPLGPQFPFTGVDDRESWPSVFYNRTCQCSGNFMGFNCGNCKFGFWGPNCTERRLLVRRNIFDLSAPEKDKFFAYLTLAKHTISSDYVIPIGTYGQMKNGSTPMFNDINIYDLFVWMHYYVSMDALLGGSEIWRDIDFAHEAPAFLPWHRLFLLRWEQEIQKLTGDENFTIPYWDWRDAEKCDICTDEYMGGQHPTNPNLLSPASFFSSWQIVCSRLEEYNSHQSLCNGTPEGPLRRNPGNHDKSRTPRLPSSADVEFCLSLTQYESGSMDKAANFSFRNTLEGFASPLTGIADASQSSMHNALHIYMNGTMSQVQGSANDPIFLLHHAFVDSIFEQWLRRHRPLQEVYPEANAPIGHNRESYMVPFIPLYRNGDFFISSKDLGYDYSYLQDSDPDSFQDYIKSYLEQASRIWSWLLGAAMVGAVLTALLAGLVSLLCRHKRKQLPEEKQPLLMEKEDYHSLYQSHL
Kind of series: Inhibition of freshly extracted human tyrosinase, L-dopa as substrate. The class given is biochemical. The conditions noted are these: at 200 μM.

Series [1] addresses T2, mushroom tyrosinase (Agaricus bisporus, UniProt C7FF04). In words: Kinetic studies of mushroom tyrosinase (Lineweaver-Burk, nonlinear regression). The class given is biochemical. Here is the method: The concentration of mushroom tyrosinase [E] was 24 units/ml. […] [I] ranged from 0 to 0.3 mM. Data were obtained as mean values of 1/V, inverse of the increase of absorbance at wavelength of 475 nm per minute (ΔA475/min) for 5 independent trials. Michaelis Menten constant (Km) and the dissociation constant Ki were derived using nonlinear regression analysis with GraphPad Prism 5.
Experiments were conducted using the same protocol as above except for changes in concentration of [E], [S] and [I]. [E] was 24 units/ml, [S] was 0.05, 0.1, 0.25, 0.5, 0.75 and 1 mM, and [I] was 0, 0.03, 0.1, 0.3 and 1 mM. Lineweaver-Burk reciprocal plots were generated to determine the mode of inhibition (Burk, D., Lineweaver, H., and Horner, C. K. (1934) J Bacteriol 27, 325-340), and Michaelis Menten plots were used to determine Vmax and Km. Nonlinear regression using GraphPad Prism 5 software was used to determine Ki. Prism calculates the Ki using the equation of Cheng, Y., and Prusoff, W. H. (1973) Biochem Pharmacol 22, 3099-3108.

Series [2] has as its system primary human keratinocytes. To be noted: 72 h. The method, then:
(§1) The three cell types were incubated with varying concentrations of the test compounds for 72 h at 37° C. and then processed using the MTT assay. Data are presented as % toxicity relative to the control as a function of concentration, and plotted as means±S.E of 5 independent trials. **p<0.01.
(§2) Keratinocytes, fibroblast, and melanocyte proliferation rates were determined using a TACS® MTT Cell Proliferation Kit (R&D systems, Minneapolis, Minn.). Cells were plated at 2.5×10^4/well in 96-well plates in a humidified atmosphere with 5% CO2 at 37° C. Twenty-four h after plating, test samples were added and cultures were incubated for an additional 72 h. The remainder of the procedure was performed following the manufacturer's protocol.
(§3) Proliferation rates were then assessed at 3 d using an MTT assay.

Series [3] concerns primary human melanocytes. The conditions noted are these: 72 h. The method, then: as §1, §2, §3
The test system of series [4] is primary human fibroblasts. To be noted: 72 h. The method, then:
as §1, §2, §3

The target of the next series is tyrosinase. The conditions noted are these: read-out: published IC50; published value; cited from earlier work.
The test system of series [5] is primary human keratinocytes. The conditions noted are these: 6 d. The method, then: (§4) Cells were seeded at equal numbers and incubated with varying concentrations of test samples for 1 day, 3 days and 6 days, harvested, stained with trypan blue, and then counted. The assay was carried out in triplicate, and the % cell death was calculated according to the formula shown in Examples.
(§5) Cellular toxicity was measured using a trypan blue dye exclusion assay. Cells were cultured in 6-well plates at a density of 4×10^5 cells/well for 1, 3, or 6 d in 2 ml of medium. […] The plates were incubated at 37° C. in a humidified 5% CO2 chamber, harvested at the appropriate time, treated with trypan blue, and then counted using a hemacytometer. Cytotoxicity was measured according to the following formula: [1−(# of cells in control−# of live cells in test sample)/# of cells in control]×100%.
(§6) The cytotoxic effect of P16-18 on primary human melanocytes, keratinocytes, and fibroblasts were then assessed at 1, 3, and 6 d using trypan blue exclusion.

Series [6] relates to primary human melanocytes. To be noted: 6 d. The method, then: as §4, §5, §6
The test system of series [7] is primary human fibroblasts. To be noted: 6 d, 30 μM. Here is the method:
as §4, §5, §6

The test system of series [8] is melanocytes, keratinocytes and fibroblasts. The conditions noted are these: for oligopeptides a minimum ratio (3 mM / IC50). An excerpt: An ideal therapeutic agent should have a ratio that is higher than two to be considered safe for long-term use in humans.
Series [9] concerns the target T2, mushroom tyrosinase. Kind of series: Enzymatic assay of mushroom tyrosinase, L-tyrosine as substrate. It is filed as biochemical. The method, then: The assay mixture was incubated at 37° C.
In order to assess this potential, their inhibitory activity against mushroom tyrosinase was tested.

No end group written: not given here.

T2 sequence (C7FF04 1-392): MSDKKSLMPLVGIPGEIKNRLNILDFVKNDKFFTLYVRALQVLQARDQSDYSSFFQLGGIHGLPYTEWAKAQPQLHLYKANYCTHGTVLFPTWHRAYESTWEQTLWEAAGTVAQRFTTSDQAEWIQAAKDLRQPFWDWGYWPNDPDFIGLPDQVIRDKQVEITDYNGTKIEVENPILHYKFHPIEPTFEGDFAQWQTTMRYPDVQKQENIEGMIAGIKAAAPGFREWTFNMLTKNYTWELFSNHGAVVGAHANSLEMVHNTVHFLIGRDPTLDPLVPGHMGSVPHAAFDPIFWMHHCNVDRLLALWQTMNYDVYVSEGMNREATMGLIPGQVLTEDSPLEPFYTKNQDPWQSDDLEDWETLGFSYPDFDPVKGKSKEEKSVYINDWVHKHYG
T2 sequence (G1K3P4 entry or part of it, further chain): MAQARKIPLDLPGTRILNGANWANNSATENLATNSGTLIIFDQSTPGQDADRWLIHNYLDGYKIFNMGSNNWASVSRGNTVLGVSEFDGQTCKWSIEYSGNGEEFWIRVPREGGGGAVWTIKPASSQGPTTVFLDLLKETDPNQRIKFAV

For `Oc1ccc(O)cc1` [HQ, hydroquinone], the “melanin content reduced by” value in the series on MNTI cells is 50±4%. Further, the “human tyrosinase activity reduced by” value at human tyrosinase stood at 5%. Further, on mushroom tyrosinase [1] (Table 4, from Lineweaver Burk plots), the Nature of inhibition entry was “competitive”. Further, the “reduction in proliferation rate” value worked out at 30±3% in [2] (100 μM), 50±3% in series [3] (100 μM) and 45±2% in series [4] (100 μM). In addition, the “proliferation inhibited by” value in series [2] (3 mM) was “up to 63±3%”; in series [3] (3 mM), “over 90%”; in series [4] (3 mM), “over 90%”. In addition, the IC50 – broadly, the concentration needed to halve the response being measured – at tyrosinase was approximately 700 µM. In addition, the cell death was 42±3% in series [5] (300 μM), 70±3% in series [6] (30 μM) and 60±2% in series [7]. In addition, in series [5] (3 mM), the “rate of cell death” value stood at 77±4%. In series [6] (20 μM), this molecule came in with a melanocyte cell death of 50±3%. Besides, in series [6] (100 μM), the “cytotoxicity / cell death” value turned out to be 100%. In [8], the “ratio of 50% cytotoxic concentration to IC50” value is on record as “significantly less than one”.

With “RRFVCC (chains of the parent or of the whole protein) [Peptide P15]”, the IC50 with mushroom tyrosinase [9] (Table 4, mushroom tyrosinase) stood at 1120 ± 50 µM; in the series with mushroom tyrosinase [9] (mushroom tyrosinase) it was 1100 µM. In addition, the inhibitory constant (Ki) (as a rule, the dissociation constant of the complex between target and ligand, obtained from inhibition or displacement) in the series with mushroom tyrosinase [1] (Table 4, mushroom tyrosinase) came out at 167 ± 11 µM.

On to RRFVCC [Peptide P15], for which the “tyrosinase inhibition (in words)” value on mushroom tyrosinase [9] (mushroom tyrosinase) is reported as “weak inhibition”.

RRFVLL [Peptide P14]: the IC50 in the series with mushroom tyrosinase [9] (mushroom tyrosinase) was 1800 µM.

With RRRYWYYR [Peptide P17], the “human tyrosinase activity reduced by” value on human tyrosinase is listed as 12%.

For the molecule RRWWRRYY [Peptide P16], the “human tyrosinase activity reduced by” value at human tyrosinase is recorded as 30%.

Turning to RRYWYWRR [Peptide P18], the “human tyrosinase activity reduced by” value at human tyrosinase worked out at 25%.

These data come from patent publication US9320698B2, “Peptide tyrosinase inhibitors and uses thereof” (Escape Therapeutics, Inc., priority 2011, dated 2016).
